Laboratory results as given in the SangsterLogP compilation.

Experiments:
[1] = method code SF-HPLC, from DOI: 10.2174/1871523013666141114203105, PMID: 25403255; conditions: pH 7.4
[2] = method code SF-AS, from DOI: 10.1248/bpb1978.4.759, PMID: 7320829
[3] = method code SF-AS, from DOI: 10.3109/03639048709068705
[4] = method code SF, from PMID: 26783178
[5] = method code SF-RC, from DOI: 10.1016/j.nucmedbio.2014.05.001, PMID: 24969632; conditions: pH 7.4
[6] = method code SF-RC, from DOI: 10.1016/j.nucmedbio.2007.12.005, PMID: 18355688; conditions: pH 7.4
[7] = method code SF-AS, from DOI: 10.1016/0378-5173(85)90003-1
[8] = method code SF-AS, from DOI: 10.1016/s0020-1693(00)85781-3
[9] = not given; remark: listed apart in the source
[10] = not given; remark: listed apart in the source
[11] = from Ganellin, C.; Brown, T.; Griffiths, R.; Jones, M.; Mitchell, C.; Rana, K.; Saunders, D.; Smith, I.; Sore, E.; Wilks, J.; Young, R. (1991). Use of partition coefficients as a model for brain …
[12] = not given; remark: listed apart in the source
[13] = method code SF-HPLC, from DOI: 10.1016/0731-7085(91)80215-u, PMID: 1821151; conditions: pH 7.4

C=CCc1ccc(OC(=O)COC(=O)Cc2ccccc2Nc2c(Cl)cccc2Cl)c(OC)c1
logD [1]: 5.13

O=C1NC(=O)C(c2ccccc2)(c2ccccc2)N1S(=O)(=O)c1ccc([N+](=O)[O-])cc1
logP [2]: 4.04

CCCCC(=O)OC(CNC(C)C)COc1cccc2ccccc12 (configuration not stated)
logP [3]: 6.3

O=C1[C@H](CC[C@H](O)c2ccc(F)cc2)[C@@H](c2ccc(O)cc2)N1c1ccc(F)cc1
logP [4]: 3.64

O=C(N1CCN(C(c2ccccc2)c2ccccc2)CC1)n1nnc2ccccc21
logD [5]: 3.61

CCCCN(C)C(=O)Cc1c(-c2ccc(Cl)cc2)nc2c(Cl)cc(Cl)cn12
logD [6]: 2.2

COc1cc(C=O)ccc1OC(=O)COC(=O)Cc1ccccc1Nc1c(Cl)cccc1Cl
logD [1]: 4.86

CC(C)(C)C(=O)OCOC(=O)C1=C(CSc2nncs2)CSC2C(NC(=O)Cn3cnnn3)C(=O)N12 (configuration not stated)
logD ([7]; pH 4.6): 1.45

CCCCCCCCCCCCCCCCCc1cc(O)cc(O)c1
logP: 9.2

Cc1nnc(SCC2=C(C(=O)OCOC(=O)C(C)(C)C)N3C(=O)C(NC(=O)Cn4cnnn4)C3SC2)s1 (configuration not stated)
logD ([7]; pH 4.5): 1.34

CC(C)(C)c1ccc2c(c1)COCCOCCOCCOCCOCCOC2
logP [8]: 1.71

O=C(N1CCC(C(c2ccc3c(c2)OCO3)c2ccc3c(c2)OCO3)CC1)n1cncn1
logD [5]: 3.32

O=C1C(CCS(=O)c2ccccc2)C(=O)N(c2ccccc2)N1c1ccccc1 (configuration not stated)
logP [9]: 3.56

COc1ccc(C(=O)C2c3cccc(O)c3C(=O)c3c(O)cccc32)cc1OC
logP [10]: 3.45

O=C1NC(=O)C(c2ccccc2)(c2ccccc2)N1S(=O)(=O)c1ccc(O)cc1
logD ([2]; pH 7.0): 1.62

CCCC(=O)OC(CNC(C)C)COc1cccc2ccccc12 (configuration not stated)
logP [3]: 5.56

COc1cccnc1CCCCNc1nc(=O)c(Cc2ccc(C)nc2)c[nH]1
logP [11]: 2.58

CCc1ccc(S(=O)(=O)NCCCC2C(=O)N(c3ccc(C)cc3)C2c2ccc(NS(C)(=O)=O)cc2)cc1 (configuration not stated)
logP [4]: 3.62

CCCCCCCC(=O)OC(CNC(C)C)COc1cccc2ccccc12 (configuration not stated)
logP [3]: 7.87

Nc1ccc(S(=O)(=O)N2C(=O)NC(=O)C2(c2ccccc2)c2ccccc2)cc1
logP [2]: 3.27

CCCOc1ccc(C(=O)C2c3cccc(O)c3C(=O)c3c(O)cccc32)cc1
logP [10]: 3.44

COc1ccc(C(=O)C2c3cccc(O)c3C(=O)c3c(O)cccc32)cc1
logP [10]: 3.74

COc1ccccc1OC(=O)COC(=O)Cc1ccccc1Nc1c(Cl)cccc1Cl
logD [1]: 4.6

CCc1ccc2c(c1)COCCOCCOCCOCCOCCOC2
logP [8]: 0.98

CCCCCCCCCCCCCCCc1cc(O)cc(O)c1
logP: 7.4

COc1cc(C=Cc2ccccn2)ccc1C=Cc1ccccn1
logP [12]: 4.25

c1ccc2c(c1)COCCOCCOCc1ccccc1COCCOC2
logP [8]: 2.21

Cc1ccc(N2C(=O)[C@H](CCCNS(=O)(=O)c3ccc(OC(F)(F)F)cc3)[C@H]2c2ccc([N+](=O)[O-])cc2)cc1
logP [4]: 4.55

CCCCCCCCCCCCCCCCCCCc1cc(O)cc(O)c1
logP: 10.9

C(=Cc1ccccn1)c1ccc(C=Cc2ccccn2)cc1
logP [12]: 3.75

CCC(C(=O)OCC1CCCCC1)C(COC(=O)c1ccccc1)c1cncn1C (configuration not stated)
logD [13]: 5.47

CN(C)Cc1ccc(CSCCNc2nc(=O)c(Cc3ccc4ccccc4c3)c[nH]2)o1
logP [11]: 4.57

c1cc(CN2CCCCC2)cc(OCCCNc2nc3ccccc3s2)c1
logP [11]: 5.41

CC(=O)OCC1=C(C(=O)OCOC(=O)C(C)(C)C)N2C(=O)C(NC(=O)CSc3ccncc3)C2SC1 (configuration not stated)
logD ([7]; pH 4.6): 1.63

CCCCN(C)C(=O)Cc1c(-c2ccccc2)nc2c(Cl)cc(Cl)cn12
logD [6]: 2.14

CC1=C(CC(=O)O)c2cc(F)ccc2/C1=C/c1ccc(S(C)(=O)=O)cc1
logP [9]: 3.29

CN(C(=O)Cc1c(-c2ccc(Cl)cc2)nc2c(Cl)cc(Cl)cn12)c1ccccc1
logD [6]: 2.2

O=C(OC(C(F)(F)F)C(F)(F)F)N1CCN(Cc2cccc(Oc3ccccc3)c2)CC1
logD [5]: 5

CCC(C(=O)OCC1CCCCC1)C(COC(C)=O)c1cncn1C (configuration not stated)
logD [13]: 3.86

COc1cc(C=Cc2ccncc2)ccc1C=Cc1ccncc1
logP [12]: 3.73

CCC(=O)OCC(c1cncn1C)C(CC)C(=O)OCC1CCCCC1 (configuration not stated)
logD [13]: 4.4

O=C1C(CCS(=O)(=O)c2ccccc2)C(=O)N(c2ccccc2)N1c1ccccc1
logP [9]: 3.51
